Assay results published in patent publication US20260176265A1 (Cancer Research Technology Limited, priority 2022, published 2026).

Tests used:
[1] = biological target: T1, Phospho-EGFR (Tyr1068) in H1975 C797S cells (Homo sapiens, UniProt P00533, C797S/L858R/T790M); experiment: HTRF pEGFR/total EGFR assay in H1975 C797S cells; format: cell-based; conditions: H1975 C797S cells (CRISPR), compound 3 hours, ratio pEGFR/total EGFR
T1 construct: endogenous in cells; host or cells: H1975 C797S (CRISPR-edited in house from ATCC CRL-5908)
How it was run: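 H1975 cells carrying CRISPR-engineered EGFR C797S (with L858R/T790M) were exposed to compounds for 3 h at 0.1% DMSO, in duplicate. Lysates were read with HTRF kits for pEGFR Tyr1068 and total EGFR at 665/620 nm. Values are the pEGFR/total EGFR ratio as percent of the 0 uM control.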

[2] = biological target: T2, Phospho-EGFR (Tyr1068) in H1975 cells (Homo sapiens, UniProt P00533, L858R/T790M); experiment: HTRF pEGFR/total EGFR assay in H1975 cells; format: cell-based; conditions: compound 3 hours, ratio pEGFR/total EGFR
T2 construct: host or cells: H1975
How it was run: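 H1975 cells (EGFR L858R/T790M) adhered 24 h, then compound-treated for 3 h in duplicate, 0.1% DMSO final. Lysates read by HTRF at 665/620 nm for phospho-Tyr1068 and total EGFR. Value is pEGFR/total EGFR ratio as % of 0 uM control.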

[3] = biological target: CtermHisTag-mEGFR Triple Mutant - C797S, L858R, T790M (Homo sapiens, UniProt P00533, C797S/L858R/T790M); experiment: TR-FRET probe displacement assay, EGFR triple mutant; format: binding; conditions: T790M 1.25 nM, probe 100 nM, 30 mins room temperature
How it was run: (§1)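 Ten-point compound series, 100000 to 3 nM final, tested against His-tagged EGFR (wild type or C797S/L858R/T790M) for probe displacement. TR-FRET read at Ex337 nm, Em490/520 nm; run in technical replicate, biological duplicate.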

[4] = biological target: T3, Phospho-EGFR (Tyr1068) in A431 cells (Homo sapiens, UniProt P00533); experiment: HTRF pEGFR/total EGFR assay in A431 cells (EGF stimulated); format: cell-based; conditions: compound 2.5 hours then 100 ng/ml EGF 30 mins, ratio pEGFR/total EGFR
T3 construct: endogenous in cells; host or cells: A431
How it was run: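 A431 cells pretreated with compounds 2.5 h (0.1% DMSO), then stimulated with 100 ng/ml EGF for 30 min. Lysates assayed by HTRF for phospho-EGFR (Tyr1068) and total EGFR, read at 665/620 nm. Values are pEGFR/total EGFR ratio as percentage of 0uM control.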

[5] = biological target: CtermHisTag-mEGFR Wild type (Homo sapiens, UniProt P00533); experiment: TR-FRET probe displacement assay, EGFR wild type; format: binding; conditions: EGFR wild type 1.25 nM, probe 100 nM, 30 mins room temperature
How it was run: as §1

T2 sequence (P00533 25-1210 T790M/L858R): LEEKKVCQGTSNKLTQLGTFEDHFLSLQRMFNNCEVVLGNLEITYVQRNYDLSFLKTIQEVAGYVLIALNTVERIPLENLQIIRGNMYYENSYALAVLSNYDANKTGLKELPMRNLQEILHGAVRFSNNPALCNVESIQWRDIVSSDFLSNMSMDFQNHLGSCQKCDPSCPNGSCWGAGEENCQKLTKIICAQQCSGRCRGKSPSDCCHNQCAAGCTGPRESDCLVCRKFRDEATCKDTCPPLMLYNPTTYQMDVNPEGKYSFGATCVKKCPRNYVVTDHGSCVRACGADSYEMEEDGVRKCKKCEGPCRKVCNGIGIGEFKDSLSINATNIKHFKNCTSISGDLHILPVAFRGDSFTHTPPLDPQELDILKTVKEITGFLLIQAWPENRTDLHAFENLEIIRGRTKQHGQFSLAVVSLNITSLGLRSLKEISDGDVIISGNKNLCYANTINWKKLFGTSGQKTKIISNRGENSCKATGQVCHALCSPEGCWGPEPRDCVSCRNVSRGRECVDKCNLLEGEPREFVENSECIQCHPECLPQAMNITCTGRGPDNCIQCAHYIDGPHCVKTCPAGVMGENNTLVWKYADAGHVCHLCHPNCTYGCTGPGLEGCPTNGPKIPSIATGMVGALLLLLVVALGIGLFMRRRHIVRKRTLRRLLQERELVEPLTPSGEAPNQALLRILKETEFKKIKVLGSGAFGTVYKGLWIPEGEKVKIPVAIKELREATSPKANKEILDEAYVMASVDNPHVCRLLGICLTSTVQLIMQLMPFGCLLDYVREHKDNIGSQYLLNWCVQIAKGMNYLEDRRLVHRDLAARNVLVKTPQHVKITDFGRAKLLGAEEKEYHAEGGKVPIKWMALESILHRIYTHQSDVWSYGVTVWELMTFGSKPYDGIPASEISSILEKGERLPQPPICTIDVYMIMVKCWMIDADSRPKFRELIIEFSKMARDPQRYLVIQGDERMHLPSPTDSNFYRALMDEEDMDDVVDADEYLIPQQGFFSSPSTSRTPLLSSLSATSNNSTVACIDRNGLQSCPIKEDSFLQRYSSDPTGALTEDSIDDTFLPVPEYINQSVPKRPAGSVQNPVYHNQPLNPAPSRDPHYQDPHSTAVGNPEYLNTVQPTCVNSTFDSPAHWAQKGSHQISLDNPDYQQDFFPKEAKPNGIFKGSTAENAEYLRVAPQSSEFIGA
Sequence of CtermHisTag-mEGFR Wild type (P00533 25-1210): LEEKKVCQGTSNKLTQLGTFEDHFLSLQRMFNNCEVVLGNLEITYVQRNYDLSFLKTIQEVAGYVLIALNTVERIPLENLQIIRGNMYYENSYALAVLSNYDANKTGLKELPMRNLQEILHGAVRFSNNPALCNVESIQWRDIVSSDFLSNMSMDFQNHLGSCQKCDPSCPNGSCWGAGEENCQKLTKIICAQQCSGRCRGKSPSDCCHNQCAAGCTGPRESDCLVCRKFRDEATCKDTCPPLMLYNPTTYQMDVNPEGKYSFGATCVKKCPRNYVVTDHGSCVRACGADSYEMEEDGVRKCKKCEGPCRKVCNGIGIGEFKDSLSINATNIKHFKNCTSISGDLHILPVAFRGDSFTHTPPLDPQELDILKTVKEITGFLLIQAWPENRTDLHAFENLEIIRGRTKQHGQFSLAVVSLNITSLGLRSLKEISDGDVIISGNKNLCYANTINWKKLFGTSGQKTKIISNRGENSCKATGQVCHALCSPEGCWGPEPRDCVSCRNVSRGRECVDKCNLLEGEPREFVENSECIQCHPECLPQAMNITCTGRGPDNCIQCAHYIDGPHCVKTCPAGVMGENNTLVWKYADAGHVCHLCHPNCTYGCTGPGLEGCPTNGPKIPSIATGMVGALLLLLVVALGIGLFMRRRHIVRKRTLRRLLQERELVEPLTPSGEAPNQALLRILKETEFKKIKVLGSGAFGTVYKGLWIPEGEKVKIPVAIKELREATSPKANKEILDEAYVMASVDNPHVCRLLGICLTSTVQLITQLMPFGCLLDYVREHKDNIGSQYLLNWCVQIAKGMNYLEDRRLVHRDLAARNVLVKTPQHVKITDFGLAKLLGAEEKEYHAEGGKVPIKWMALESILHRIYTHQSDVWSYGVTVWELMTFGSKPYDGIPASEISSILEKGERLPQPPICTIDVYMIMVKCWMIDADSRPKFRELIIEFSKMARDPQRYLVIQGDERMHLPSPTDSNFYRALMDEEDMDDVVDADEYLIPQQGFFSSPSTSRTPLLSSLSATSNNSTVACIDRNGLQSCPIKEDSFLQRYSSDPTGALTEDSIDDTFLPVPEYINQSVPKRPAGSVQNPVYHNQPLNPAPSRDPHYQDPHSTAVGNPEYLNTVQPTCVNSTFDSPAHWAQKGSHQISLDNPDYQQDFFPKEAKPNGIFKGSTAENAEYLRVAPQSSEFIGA
T3 sequence (P00533 25-1210): as above
T1 sequence (P00533 25-1210 T790M/C797S/L858R): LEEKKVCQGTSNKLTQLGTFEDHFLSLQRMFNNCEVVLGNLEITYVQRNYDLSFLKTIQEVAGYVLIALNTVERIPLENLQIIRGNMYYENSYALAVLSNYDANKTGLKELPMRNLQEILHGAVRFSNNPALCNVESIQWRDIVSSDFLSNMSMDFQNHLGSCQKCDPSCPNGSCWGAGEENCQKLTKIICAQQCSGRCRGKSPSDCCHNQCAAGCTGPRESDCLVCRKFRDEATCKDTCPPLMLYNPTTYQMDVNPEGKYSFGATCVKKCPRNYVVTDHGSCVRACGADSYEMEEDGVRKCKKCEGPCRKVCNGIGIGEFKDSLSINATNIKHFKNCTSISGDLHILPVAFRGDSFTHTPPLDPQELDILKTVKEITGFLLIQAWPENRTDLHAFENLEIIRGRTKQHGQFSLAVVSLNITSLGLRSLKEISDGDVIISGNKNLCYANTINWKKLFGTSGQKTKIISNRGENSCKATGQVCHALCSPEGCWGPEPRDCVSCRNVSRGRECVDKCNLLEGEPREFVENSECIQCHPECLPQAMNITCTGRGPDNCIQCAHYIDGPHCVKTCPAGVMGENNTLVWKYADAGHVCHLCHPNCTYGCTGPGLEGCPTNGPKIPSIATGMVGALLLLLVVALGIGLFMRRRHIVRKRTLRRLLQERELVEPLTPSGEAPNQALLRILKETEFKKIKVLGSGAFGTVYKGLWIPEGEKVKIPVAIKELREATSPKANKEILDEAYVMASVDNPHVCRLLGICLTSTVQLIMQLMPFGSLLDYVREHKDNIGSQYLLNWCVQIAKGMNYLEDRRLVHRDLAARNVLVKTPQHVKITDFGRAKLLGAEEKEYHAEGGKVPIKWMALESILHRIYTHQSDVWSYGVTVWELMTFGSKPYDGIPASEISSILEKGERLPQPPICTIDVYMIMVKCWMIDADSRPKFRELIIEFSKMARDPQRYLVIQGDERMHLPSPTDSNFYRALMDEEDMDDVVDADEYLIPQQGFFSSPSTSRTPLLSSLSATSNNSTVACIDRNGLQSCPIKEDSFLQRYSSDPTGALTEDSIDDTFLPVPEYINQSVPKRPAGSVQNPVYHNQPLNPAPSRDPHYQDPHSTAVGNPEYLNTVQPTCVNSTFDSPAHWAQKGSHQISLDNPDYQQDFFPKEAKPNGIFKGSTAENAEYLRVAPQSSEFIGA

IC50 [1] [µM]	IC50 [2] [nM]	IC50 [3] [nM]	IC50 [4] [µM]	IC50 [5] [nM]	SMILES
> 3	> 3000	< 20	> 3	1000 to 10000	C#Cc1cc(NC(=O)NC2CN(C(C)=O)C2)nc2nc(Nc3ccc(N4CCN(C)CC4)cc3)ncc12 [Example 54]
< 0.5	< 500	< 20	> 3	< 1000	C#Cc1cc(NC(=O)NCC2COC2)nc2nc(Nc3ccc(N4CCN(C)CC4)cc3)ncc12 [Example 55, 1-(5-ethynyl-2-{[4-(4-methylpiperazin-1-yl)phenyl]amino}pyrido[2,3-d]pyrimidin-7-yl)-3-(oxetan-3-ylmethyl)urea]
> 3	1000 to 3000	100 to 1000	> 3	> 10000	C#Cc1cc(NC(=O)N2CCCC2)nc2nc(Nc3ccc(N4CCN(C)CC4)cc3)ncc12 [Example 56, N-(5-ethynyl-2-{[4-(4-methylpiperazin-1-yl)phenyl]amino}pyrido[2,3-d]pyrimidin-7-yl)pyrrolidine-1-carboxamide]
> 3	> 3000	< 20	> 3	< 1000	C#Cc1cc(NC(=O)NC2CN(S(C)(=O)=O)C2)nc2nc(Nc3ccc(N4CCN(C)CC4)cc3)ncc12 [Example 57, 1-(5-ethynyl-2-{[4-(4-methylpiperazin-1-yl)phenyl]amino}pyrido[2,3-d]pyrimidin-7-yl)-3-(1-methanesulfonylazetidin-3-yl)urea]
> 3	> 3000	100 to 1000	> 3	> 10000	C#Cc1cc(NC(=O)N2Cc3ccccc3C2)nc2nc(Nc3ccc(N4CCN(C)CC4)cc3)ncc12 [Example 58, N-(5-ethynyl-2-{[4-(4-methylpiperazin-1-yl)phenyl]amino}pyrido[2,3-d]pyrimidin-7-yl)-1,3-dihydroisoindole-2-carboxamide]
1 to 3	1000 to 3000	< 20	> 3	< 1000	C#Cc1cc(NC(=O)Nc2ncc[nH]2)nc2nc(Nc3ccc(N4CCN(C)CC4)cc3)ncc12 [Example 59, 1-(5-ethynyl-2-{[4-(4-methylpiperazin-1-yl)phenyl]amino}pyrido[2,3-d]pyrimidin-7-yl)-3-(1H-imidazol-2-yl)urea]
< 0.5	< 500	< 20	< 0.5	< 1000	C#Cc1cc(NC(=O)NC2(C(F)(F)F)CCCC2)nc2nc(Nc3ccc(N4CCN(C)CC4)cc3)ncc12 [Example 60, 1-(5-ethynyl-2-((4-(4-methylpiperazin-1-yl)phenyl)amino)pyrido[2,3-d]pyrimidin-7-yl)-3-(1-(trifluoromethyl)cyclopentyl)urea]
< 0.5	< 500	< 20	> 3	< 1000	C#Cc1cc(NC(=O)NC2(C)COC2)nc2nc(Nc3ccc(N4CCN(C)CC4)cc3)ncc12 [Example 61, 1-(5-ethynyl-2-((4-(4-methylpiperazin-1-yl)phenyl)amino)pyrido[2,3-d]pyrimidin-7-yl)-3-(3-methyloxetan-3-yl)urea]
< 0.5	< 500	< 20	0.5 to 1	< 1000	C#Cc1cc(NC(=O)NC2(C)CCOC2)nc2nc(Nc3ccc(N4CCN(C)CC4)cc3)ncc12 (centres unmarked) [Example 62]
1 to 3	< 500	20 to 100	< 0.5	< 1000	C#Cc1cc(NC(=O)NC2CCCC2)nc2nc(Nc3ccc(N4CCN(C)CC4)c(NCC4CCC4)c3)ncc12 [Example 63]
1 to 3	< 500	< 20	< 0.5	1000 to 10000	C#Cc1cc(N2C(=O)NCC2C(C)C)nc2nc(Nc3ccc(N4CCN(C)CC4)cc3)ncc12 (centres unmarked) [Example 64, 1-(5-ethynyl-2-{[4-(4-methylpiperazin-1-yl)phenyl]amino}pyrido[2,3-d]pyrimidin-7-yl)-5-isopropylmidazolidin-2-one]
> 3	1000 to 3000	100 to 1000	> 3	> 10000	C#Cc1cc(NC(=O)OC2CCCC2)nc2nc(Nc3ccc(N4CCN(C)CC4)cc3)ncc12 [Example 65, cyclopentyl (5-ethynyl-2-((4-(4-methylpiperazin-1-yl)phenyl)amino)pyrido[2,3-d]pyrimidin-7-yl)carbamate]
> 3	> 3000	100 to 1000	> 3	> 10000	C#Cc1cc(NC(=O)OC2CCCCC2)nc2nc(Nc3ccc(N4CCN(C)CC4)cc3)ncc12 [Example 66, cyclohexyl (5-ethynyl-2-((4-(4-methylpiperazin-1-yl)phenyl)amino)pyrido[2,3-d]pyrimidin-7-yl)carbamate]
> 3	> 3000	1000 to 50000	> 3	> 10000	C#Cc1cc(NC(=O)OCc2ccccc2)nc2nc(Nc3ccc(N4CCN(C)CC4)cc3)ncc12 [Example 67, benzyl (5-ethynyl-2-((4-(4-methylpiperazin-1-yl)phenyl)amino)pyrido[2,3-d]pyrimidin-7-yl)carbamate]
1 to 3	< 500	< 20	> 3	1000 to 10000	C#Cc1cc(N2C(=O)OCC2C(C)C)nc2nc(Nc3ccc(N4CCN(C)CC4)cc3)ncc12 (centres unmarked) [Example 68, 3-(5-ethynyl-2-{[4-(4-methylpiperazin-1-yl)phenyl]amino}pyrido[2,3-d]pyrimidin-7-yl)-4-isopropyl-1.3-oxazolidin-2-one]
0.5 to 1	500 to 1000	< 20	> 3	> 10000	C#Cc1cc(N2C(=O)OC[C@H]2C(C)C)nc2nc(Nc3ccc(N4CCN(C)CC4)cc3)ncc12 [Example 69, (4R)-3-(5-ethynyl-2-{[4-(4-methylpiperazin-1-yl)phenyl]amino}pyrido[2,3-d]pyrimidin-7-yl)-4-isopropyl-1,3-oxazolidin-2-one]
> 3	500 to 1000	< 20	0.5 to 1	< 1000	C#Cc1cc(N2C(=O)OC[C@@H]2C(C)C)nc2nc(Nc3ccc(N4CCN(C)CC4)cc3)ncc12 [Example 70, (4S)-3-(5-ethynyl-2-{[4-(4-methylpiperazin-1-yl)phenyl]amino}pyrido[2,3-d]pyrimidin-7-yl)-4-isopropyl-1,3-oxazolidin-2-one]
> 3	1000 to 3000	< 20	1 to 3	< 1000	C#Cc1cc(N2CCOC2=O)nc2nc(Nc3ccc(N4CCN(C)CC4)cc3)ncc12 [Example 71, 3-(5-ethynyl-2-{[4-(4-methylpiperazin-1-yl)phenyl]amino}pyrido[2,3-d]pyrimidin-7-yl)-1,3-oxazolidin-2-one]
1 to 3	500 to 1000	< 20	> 3	< 1000	C#Cc1c(C)c(NC(=O)NC2CCCC2)nc2nc(Nc3ccc(N4CCN(C)CC4)cc3)ncc12 [Example 72, 3-Cyclopentyl-1-(5-ethynyl-6-methyl-2-{[4-(4-methylpiperazin-1-yl)phenyl]amino}pyrido[2,3-d]pyrimidin-7-yl)urea]
< 0.5	< 500	< 20	> 3	< 1000	C#Cc1cc(N(C)C(=O)NC2CCCC2)nc2nc(Nc3ccc(N4CCN(C)CC4)cc3)ncc12 [Example 73, 3-Cyclopentyl-1-(5-ethynyl-2-{[4-(4-methylpiperazin-1-yl)phenyl]amino}pyrido[2,3-d]pyrimidin-7-yl)-1-methylurea]
> 3	> 3000	100 to 1000	> 3	1000 to 10000	C#Cc1cc(NC(=O)N(C)C2CCCC2)nc2nc(Nc3ccc(N4CCN(C)CC4)cc3)ncc12 [Example 74, 3-Cyclopentyl-1-(5-ethynyl-2-{[4-(4-methylpiperazin-1-yl)phenyl]amino}pyrido[2,3-d]pyrimidin-7-yl)-3-methylurea]
< 0.5	< 500	< 20	< 0.5	< 1000	C#Cc1cc(NC(=O)NC2CCCC2)nc2nc(Nc3ccc(N4CCOCC4)cc3)ncc12 [Example 75]
